Key:
Assay type in all cases: in vivo
[1] = system: Triticum aestivum (spring wheat), TRZAS; experiment: Greenhouse postemergence safening trial, visual injury on spring wheat
Protocol: (§1) Greenhouse Trial Methodology-Evaluation of Postemergence Herbicidal […] in Crops […] When required to ensure good germination and healthy plants, a fungicide treatment and/or other chemical or physical treatment was applied. The plants were grown for 7-36 days (d) in a greenhouse with an approximate 14-hour (h) photoperiod which was maintained at about 23° C. during the day and 22° C. during the night. Nutrients and water were added on a regular basis and supplemental lighting was provided with overhead metal halide 1000-Watt lamps as necessary. The plants were employed for testing when they reached the second or third true leaf stage. Emulsifiable concentrates of each of each pyridine carboxylate herbicide (Compound A or Compound B) were prepared at 100 grams acid equivalent per liter (g ae/L). […] The concentrated stock solutions were further diluted with an aqueous mixture of 1.25% […] or MSO® Concentrate with LECI-TECH® to obtain stock solutions at reduced application rates for each herbicide. Spray solutions of the herbicide combinations (Compound A or Compound B plus safener) were prepared by adding weighed amounts or aliquots of the safener to the stock solutions of Compound A or Compound B to form 12-mL spray solutions in two-way combinations. […] Control plants were sprayed in the same manner with the solvent blank. All herbicide (component a) application rates are given as “g ae/ha” and all safener (component b) application rates are given as “g ai/ha.” The treated plants and control plants were placed in a greenhouse as described above and watered by sub-irrigation to prevent wash-off of the test compounds.

[2] = system: Salsola kali (Russian thistle), SASKR; experiment: Greenhouse postemergence trial, visual injury on Russian thistle
Protocol: as §1

[3] = system: Hordeum vulgare (spring barley), HORVS; experiment: Greenhouse postemergence safening trial, visual injury on spring barley
Protocol: as §1

[4] = system: Matricaria chamomilla (wild chamomile), MATCH; experiment: Greenhouse postemergence trial, visual injury on wild chamomile
Protocol: as §1

[5] = system: Brassica napus (winter rape), BRSNW; experiment: Greenhouse postemergence trial, visual injury on winter rape
Protocol: as §1

[6] = system: Triticum aestivum (durum wheat), TRZDU; experiment: Greenhouse postemergence safening trial, visual injury on durum wheat; settings: safener alone 40 g/ha
Protocol: as §1

[7] = system: Avena sativa (common oat), AVESA; experiment: Greenhouse postemergence safening trial, visual injury on common oat; settings: safener alone 40 g/ha
Protocol: as §1

[8] = system: Hordeum vulgare (winter barley), HORVW; experiment: Greenhouse postemergence safening trial, visual injury on winter barley
Protocol: as §1

[9] = system: Triticum aestivum (winter wheat), TRZAW; experiment: Greenhouse postemergence safening trial, visual injury on winter wheat
Protocol: as §1

maize (ZEAMX) = experiment: Greenhouse postemergence safening trial, visual injury on maize; settings: Table 18
Text: (§2) Greenhouse Trial Methodology—Evaluation of Postemergence Herbicidal Safening in Crops
(§3) Seeds of the desired test plant species were planted in a 90:10% v/v (volume/volume) mixture of PRO-MIX® BX (Premier Tech Horticulture, Quakertown, PA, USA) and PROFILE® GREENS GRADE™ (Profile Products LLC, Buffalo Grove, IL, USA) planting mixture, which typically has a pH of 5.2 to 6.2 and an organic matter content of at least 50 percent, in plastic pots with a surface area of 103.2 square centimeters (cm^2). When required to ensure good germination and healthy plants, a fungicide treatment and/or other chemical or physical treatment was applied. The plants were grown for 7-36 days (d) in a greenhouse with an approximate 14-hour (h) photoperiod which was maintained at about 23° C. during the day and 22° C. during the night. Nutrients and water were added on a regular basis and supplemental lighting was provided with overhead metal halide 1000-Watt lamps as necessary. The plants were employed for testing when they reached the second or third true leaf stage.
(§4) Emulsifiable concentrates of each of each pyridine carboxylate herbicide (Compound A or Compound B) were prepared at 100 grams acid equivalent per liter (g ae/L). An aliquot of each emulsifiable concentrate was placed in a 25 mL glass vial and diluted with an aqueous mixture of 1.25% (v/v) ACTIROB® B esterified rapeseed oil (Bayer Crop Science, Research Triangle Park, NC, USA) or MSO® Concentrate with LECI-TECH® methylated soybean oil (Loveland Products, Loveland, CO, USA) to obtain concentrated stock solutions at the highest application rate for each herbicide, based upon a 12 milliliter (mL) application volume at a rate of 187 liters per hectare (L/ha). The concentrated stock solutions were further diluted with an aqueous mixture of 1.25% v/v ACTIROB® B or MSO® Concentrate with LECI-TECH® to obtain stock solutions at reduced application rates for each herbicide. Spray solutions of the herbicide combinations (Compound A or Compound B plus safener) were prepared by adding weighed amounts or aliquots of the safener to the stock solutions of Compound A or Compound B to form 12-mL spray solutions in two-way combinations.
(§5) The spray solutions were applied to the plant material with an overhead Mandel track sprayer equipped with 8002E nozzles calibrated to deliver 187 L/ha over an application area of 0.503 square meters (m^2) at a spray height of 18 inches (43 centimeters (cm)) above the average plant canopy. Control plants were sprayed in the same manner with the solvent blank. All herbicide (component a) application rates are given as “g ae/ha” and all safener (component b) application rates are given as “g ai/ha.”
(§6) The treated plants and control plants were placed in a greenhouse as described above and watered by sub-irrigation to prevent wash-off of the test compounds. After 20-22 d, the condition of the test plants as compared with that of the control plants was determined visually and scored on a scale of 0 to 100 percent where 0 corresponds to no injury and 100 corresponds to complete kill.

[10] = system: Matricaria inodora (false chamomile), MATIN; experiment: Greenhouse postemergence trial, visual injury on false chamomile
Text: as §2, §3, §4, §5, §6

[11] = system: pigweed (AMARE, Amaranthus retroflexus); experiment: Greenhouse postemergence trial, visual injury on pigweed; settings: Table 18
Text: as §2, §3, §4, §5, §6

[12] = system: Anthemis arvensis (field chamomile), ANTAR; experiment: Greenhouse postemergence trial, visual injury on field chamomile
Text: as §2, §3, §4, §5, §6

[13] = system: common sunflower (HELAN, Helianthus annuus); experiment: Greenhouse postemergence trial, visual injury on common sunflower; settings: Table 18
Text: as §2, §3, §4, §5, §6

[14] = system: nutsedge (CYPES, Cyperus esculentus); experiment: Greenhouse postemergence trial, visual injury on nutsedge; settings: Table 18
Text: as §2, §3, §4, §5, §6

[15] = system: Sinapis arvensis (wild mustard), SINAR; experiment: Greenhouse postemergence trial, visual injury on wild mustard
Text: as §2, §3, §4, §5, §6

COC(=O)COc1ccc(Cl)c2cccnc12 [CQC-methyl, cloquintocet-methyl]
0%: % visual injury, Ob ([1]; safener alone 10 g/ha) | % visual injury, Ob ([1]; safener alone 20 g/ha) | % visual injury, Ob ([1]; safener alone 40 g/ha) | % visual injury, Ob ([2]; safener alone 10 g/ha) | % visual injury, Ob ([2]; safener alone 20 g/ha) | % visual injury, Ob ([2]; safener alone 40 g/ha) | % visual injury, Ob ([3]; safener alone 10 g/ha) | % visual injury, Ob ([3]; safener alone 20 g/ha) | % visual injury, Ob ([3]; safener alone 40 g/ha) | % visual injury, Ob ([4]; safener alone 10 g/ha) | % visual injury, Ob ([4]; safener alone 20 g/ha) | % visual injury, Ob ([4]; safener alone 40 g/ha) | % visual injury, Ob ([5]; safener alone 10 g/ha) | % visual injury, Ob ([5]; safener alone 20 g/ha) | % visual injury, Ob ([5]; safener alone 40 g/ha)

CNC.O=C(O)COc1ccc(Cl)c2cccnc12 [CQC-DMA, cloquintocet-dimethylammonium salt]
0%: % visual injury, Ob ([1]; safener alone 10 g/ha) | % visual injury, Ob ([1]; safener alone 20 g/ha) | % visual injury, Ob ([1]; safener alone 40 g/ha) | % visual injury, Ob [6] | % visual injury, Ob [7] | % visual injury, Ob ([2]; safener alone 10 g/ha) | % visual injury, Ob ([2]; safener alone 20 g/ha) | % visual injury, Ob ([2]; safener alone 40 g/ha) | % visual injury, Ob ([8]; safener alone 40 g/ha) | % visual injury, Ob ([3]; safener alone 10 g/ha) | % visual injury, Ob ([3]; safener alone 20 g/ha) | % visual injury, Ob ([3]; safener alone 40 g/ha) | % visual injury, Ob ([4]; safener alone 10 g/ha) | % visual injury, Ob ([4]; safener alone 20 g/ha) | % visual injury, Ob ([4]; safener alone 40 g/ha) | % visual injury Δ ([9]; safener alone 40 g/ha) | % visual injury, Ob ([9]; safener alone 40 g/ha) | % visual injury, Ob ([5]; safener alone 10 g/ha) | % visual injury, Ob ([5]; safener alone 20 g/ha) | % visual injury, Ob ([5]; safener alone 40 g/ha)

O=C(O)COc1ccc(Cl)c2cccnc12 [CQC-a, cloquintocet-acid]
0%: % visual injury, Ob (maize (ZEAMX); CQC-a 20 g/ha alone) | % visual injury, Ob (maize (ZEAMX); CQC-a 40 g/ha alone) | % visual injury, Ob (maize (ZEAMX); CQC-a 80 g/ha alone) | % visual injury, Ob (maize (ZEAMX); CQC-a 120 g/ha alone) | % visual injury, Ob ([1]; safener alone 5 g/ha) | % visual injury, Ob ([1]; safener alone 10 g/ha) | % visual injury, Ob ([1]; safener alone 20 g/ha) | % visual injury, Ob ([1]; safener alone 40 g/ha) | % visual injury, Ob ([1]; safener alone 80 g/ha) | % visual injury, Ob ([1]; safener alone 120 g/ha) | % visual injury, Ob [6] | % visual injury, Ob ([10]; safener alone 10 g/ha) | % visual injury, Ob ([10]; safener alone 20 g/ha) | % visual injury, Ob ([10]; safener alone 40 g/ha) | % visual injury, Ob ([10]; safener alone 80 g/ha) | % visual injury, Ob [7] | % visual injury, Ob ([11]; CQC-a 20 g/ha alone) | % visual injury, Ob ([11]; CQC-a 40 g/ha alone) | % visual injury, Ob ([11]; CQC-a 80 g/ha alone) | % visual injury, Ob ([11]; CQC-a 120 g/ha alone) | % visual injury, Ob ([12]; safener alone 5 g/ha) | % visual injury, Ob ([12]; safener alone 10 g/ha) | % visual injury, Ob ([12]; safener alone 20 g/ha) | % visual injury, Ob ([12]; safener alone 40 g/ha) | % visual injury, Ob ([8]; safener alone 5 g/ha) | % visual injury, Ob ([8]; safener alone 10 g/ha) | % visual injury, Ob ([8]; safener alone 20 g/ha) | % visual injury, Ob ([8]; safener alone 40 g/ha) | % visual injury, Ob ([8]; safener alone 80 g/ha) | % visual injury, Ob ([3]; safener alone 5 g/ha) | % visual injury, Ob ([3]; safener alone 10 g/ha) | % visual injury, Ob ([3]; safener alone 20 g/ha) | % visual injury, Ob ([3]; safener alone 40 g/ha) | % visual injury, Ob ([3]; safener alone 80 g/ha) | % visual injury, Ob ([3]; safener alone 120 g/ha) | % visual injury, Ob ([9]; safener alone 5 g/ha) | % visual injury, Ob ([9]; safener alone 10 g/ha) | % visual injury, Ob ([9]; safener alone 20 g/ha) | % visual injury Δ ([9]; safener alone 40 g/ha) | % visual injury, Ob ([9]; safener alone 40 g/ha) | % visual injury, Ob ([9]; safener alone 80 g/ha) | % visual injury, Ob ([9]; safener alone 120 g/ha) | % visual injury, Ob ([13]; CQC-a 20 g/ha alone) | % visual injury, Ob ([13]; CQC-a 40 g/ha alone) | % visual injury, Ob ([13]; CQC-a 80 g/ha alone) | % visual injury, Ob ([13]; CQC-a 120 g/ha alone) | % visual injury, Ob ([14]; CQC-a 20 g/ha alone) | % visual injury, Ob ([14]; CQC-a 40 g/ha alone) | % visual injury, Ob ([14]; CQC-a 80 g/ha alone) | % visual injury, Ob ([14]; CQC-a 120 g/ha alone) | % visual injury, Ob ([15]; safener alone 10 g/ha) | % visual injury, Ob ([15]; safener alone 20 g/ha) | % visual injury, Ob ([15]; safener alone 40 g/ha) | % visual injury, Ob ([15]; safener alone 80 g/ha) | % visual injury, Ob ([5]; safener alone 5 g/ha) | % visual injury, Ob ([5]; safener alone 10 g/ha) | % visual injury, Ob ([5]; safener alone 20 g/ha) | % visual injury, Ob ([5]; safener alone 40 g/ha)
